Assay results from US20090297545A1, “IMMUNOMODULATORY DAIRY PEPTIDES AND USES THEREOF” (Universite Laval, priority 2008, published 2009).
Marks after values point to notes of the source that are not given here.

Assays:
Type in all cases: cell-based, BALB/c mice
murine splenocytes [1] = experiment: In vitro murine splenocyte proliferation assay (Alamar Blue), Example III
Protocol: In vitro murine splenocyte proliferation assay. The impact of whey peptides on splenocyte proliferation was assessed as follow. Spleens from 6-week-old female BALB/c mice (Charles River, St-Constant, QC, Canada) were removed, mechanically disrupted in complete RPMI-1640 medium (RPMI-1640 medium supplemented with 2 mmol L^−1 L-glutamine (Wisent, St-Bruno, QC, Canada), 10% foetal calf serum (FCS, Wisent), 50 μmol L^−1 mercaptoethanol (Sigma-Aldrich), and 100 μg mL^−1 of penicillin/streptomycin (Wisent), and then filtered through 70 μm cell strainer (BD Falcon, Bedford, Mass., USA) under aseptic conditions. Erythrocytes were lysed by osmotic shock using 0.87% NH4Cl (Sigma-Aldrich) for 2 min at 37° C., then cells were washed 3 times at 4° C. with complete RPMI. They were stained with 0.4% trypan blue (Celigro, Mediatech, Washington, D.C., USA) and counted using a Malassez chamber. The cell suspension was then adjusted to 1.25×10^6 viable cells mL^−1 in RPMI medium.
The cells (100 μL) were added to the wells of 96-well round-bottomed microplates containing 50 μL of RPMI, or 50 μL of peptide solutions. Various concentrations (10-2000 μg mL^−1) of the solutions, which were prepared in complete RPMI and adjusted to pH 7, were added to the wells. The same experiments were also performed in the presence of ConA (0.5 μg mL^−1) to evaluate the effects of the products on ConA-stimulated cells. The microplates with and without ConA were incubated for 72 h and 96 h, respectively. Cell proliferation was evaluated by the reduction of the fluorochrome Alamar Blue™ (BioSource international, Camarillo, Calif., USA), which was added to the wells (20 μL) for the last 24 h of the incubation periods. The fluorescence of the supernatants was monitored at an excitation wavelength of 544 nm and an emission wavelength of […] using a fluorometer (Fluoroscan Ascent, Thermo Electron Inc., Milford, Mass., USA). Data are expressed as a stimulation index (SI).

murine splenocytes [2] = experiment: Cytokine profile of splenocyte supernatants, RayBio Mouse Cytokine Antibody Array; conditions: peptide 2000 μg/mL + ConA 0.5 μg/mL, 72 h; Cells + ConA = 1
Protocol: Cytokine analyses. After 72 hours, the supernatants from the splenocyte cultures with the cells, cells+ConA (0.5 μg/mL), and each of the peptides (2000 μg/mL) in the presence of ConA (0.5 μg/mL) were collected and stored at −20° C. until used for the cytokine detection assay. A cytokine profile analysis was performed by using the RayBio Mouse Cytokine Antibody Array G series 2 (RayBiotech, Inc., Norcross, Ga.), in order to obtain semi-quantitative levels of 32 different growth factors, cytokines and chemokines (Table 7).
Incubation protocol, signal detection, and interpretation of the data were performed according to manufacturer instructions. Results were expressed as the relative quantity of cytokines detected in the culture supernatants calculated according to the following equation: […]

murine splenocytes [3] = experiment: Cytokine secretion in splenocyte culture supernatants by ELISA, Example I
Protocol: Cytokine analysis. The supernatants from 72 h-splenocytes cultures were collected and their cytokine content was measured. The optimal incubation times were determined from preliminary assays with peptide fractions. The levels of IL-4, IL-10 and IFN-γ were determined using commercial ELISA kits (BioLegend, San Diego, Calif., USA) according to the manufacturer's instructions. Interleukin-2 levels were also measured by ELISA using a commercial kit (BioSource International, Camarillo, Calif., USA) according to the manufacturer's instructions. The results are the means of four or more assays (three wells per sample). The detection limits for IL-2, IL-4, IL-10 and IFN-γ were <8.0, <1.0, <30.0 and <4.0 pg/mL, respectively.
Cytokine analysis were performed at concentration leading to optimal spleen cells proliferation of peptide β-Lg f139-148 (SEQ ID NO. 1) (2000 μg/mL) as reported in Tables 2 and 3. The sequence β-Lg f78-83 (SEQ ID NO. 10), resulting in no effect on the cytokine secretion of resting- and ConA-stimulated murine splenocytes (results not shown), was used as control at concentration of 10 μg/mL for statistical analysis. The effects of the selected peptide on cytokine secretion from splenocytes cultured in the absence and presence of 0.5 μg/mL of ConA are shown in Table 5.

murine splenocytes [4] = experiment: Ex vivo murine splenocytes proliferation assay (Alamar Blue), Example I; conditions: for Stimulation index, proliferation of murine splenocytes in the presence of Concavanalin A: ConA 0.5 μg/mL; for Stimulation index, proliferation of resting murine splenocytes: without ConA
Protocol: Ex vivo murine splenocytes proliferation assay. The splenocytes were isolated from 6- to 12-weeks-old female BALB/c mice (Charles River, St-Constant, QC, Canada) and cultured in the absence and presence of suboptimal concentration of ConA (0.5 μg/mL). The peptides were solubilized in complete RPMI medium, agitated overnight at 4° C. then the solutions were adjusted to pH 7. Thereafter, the peptide solutions were added at various final concentrations (10-2000 μg/mL, protein basis) to the wells of 96-well round-bottomed microplates, which were incubated at 37° C. at 80% relative humidity in a 5% CO2 atmosphere for 72 h (with ConA) or 96 h (without ConA). Cell proliferation was evaluated by the reduction of the fluorochrome Alamar Blue™ (BioSource international, Camarillo, Calif., USA), which was added into the wells for the last 24 h of the incubation periods. The fluorescence of the supernatants was monitored at an excitation wavelength of 560 nm and an emission wavelength of 590 nm using a fluorometer (Fluoroscan Ascent, Thermo Electron Inc., Milford, Mass., USA). The assays were performed in triplicate (three wells per sample) and data are expressed as stimulation indices (SI), and calculated using the following equations: […]

[5] = splenocytes with ConA 0.5 μg mL^−1, peptide 2000 μg mL^−1
[6] = splenocytes without ConA, peptide 2000 μg mL^−1

Substance	Stimulation index, proliferation of murine splenocytes in the presence of Concavanalin A (murine splenocytes [4]; peptide 10 μg mL^−1, 72 h)	Stimulation index, proliferation of resting murine splenocytes (murine splenocytes [4]; peptide 10 μg mL^−1, 96 h)	Stimulation index, proliferation of murine splenocytes in the presence of Concavanalin A (murine splenocytes [4]; peptide 100 μg mL^−1, 72 h)	Stimulation index, proliferation of resting murine splenocytes (murine splenocytes [4]; peptide 100 μg mL^−1, 96 h)	Stimulation index, proliferation of murine splenocytes in the presence of Concavanalin A (murine splenocytes [4]; peptide 500 μg mL^−1, 72 h)	Stimulation index, proliferation of resting murine splenocytes (murine splenocytes [4]; peptide 500 μg mL^−1, 96 h)	Stimulation index, proliferation of murine splenocytes in the presence of Concavanalin A (murine splenocytes [4]; peptide 1000 μg mL^−1, 72 h)	Stimulation index, proliferation of resting murine splenocytes (murine splenocytes [4]; peptide 1000 μg mL^−1, 96 h)	Stimulation index, proliferation of murine splenocytes in the presence of Concavanalin A (murine splenocytes [4]; peptide 2000 μg mL^−1, 72 h)	Stimulation index, proliferation of resting murine splenocytes (murine splenocytes [4]; peptide 2000 μg mL^−1, 96 h)	further results
ALK (listed as Homo sapiens) [β-Lg f139-141]	–	–	–	–	–	–	–	–	–	–	Effect on splenocyte proliferation in the presence of ConA at higher concentrations (murine splenocytes [1]; ConA 0.5 μg/mL): lost their stimulating capacity; Concentration at which stimulation of resting cell proliferation becomes significant (murine splenocytes [1]; resting cells, dose-dependent up to 2000 μg/mL): 500 µg/mL; Relative quantity of IFN-γ in supernatant (murine splenocytes [2]): 1.0; Relative quantity of IL-2 in supernatant (murine splenocytes [2]): 1.7; Relative quantity of IL-3 in supernatant (murine splenocytes [2]): 0.7; Relative quantity of IL-4 in supernatant (murine splenocytes [2]): 1; Relative quantity of IL-17 in supernatant (murine splenocytes [2]): 1.1; Relative quantity of RANTES in supernatant (murine splenocytes [2]): 1.7; Relative quantity of VEGF in supernatant (murine splenocytes [2]): 0.9
ALKALPMHIR (listed as Homo sapiens) [β-Lg f139-148]	2.28	1.08*	2.24	1.17**	2.36*	1.35**	2.62**	1.53**	2.73**	1.77**	IFN-γ secretion in supernatant (murine splenocytes [3]; [5]): 717.5** pg mL^−1; IL-2 secretion in supernatant (murine splenocytes [3]; [5]): 15.8 pg/mL; IL-4 secretion in supernatant (murine splenocytes [3]; [5]): 3.0** pg mL^−1; IL-10 secretion in supernatant (murine splenocytes [3]; [5]): <30.0 pg/mL; IFN-γ secretion in supernatant (murine splenocytes [3]; [6]): 81.3** pg mL^−1; IL-2 secretion in supernatant (murine splenocytes [3]; [6]): 9.3 pg/mL; IL-4 secretion in supernatant (murine splenocytes [3]; [6]): <1.0 pg/mL; IL-10 secretion in supernatant (murine splenocytes [3]; [6]): <30.0 pg/mL
ALPMHIR (listed as Homo sapiens) [β-Lg f142-148]	2.32	1.16	2.30	1.17	2.36	1.37**	2.49**	1.61**	2.63**	1.73**	–
DAQSAPLR [β-Lg f33-40]	–	–	–	–	–	–	–	–	–	–	Relative quantity of IFN-γ in supernatant (murine splenocytes [2]): 0.7; Relative quantity of IL-2 in supernatant (murine splenocytes [2]): 0.6; Relative quantity of IL-3 in supernatant (murine splenocytes [2]): 0.1; Relative quantity of IL-4 in supernatant (murine splenocytes [2]): 0.7; Relative quantity of IL-17 in supernatant (murine splenocytes [2]): 0.6; Relative quantity of RANTES in supernatant (murine splenocytes [2]): 0.4; Relative quantity of VEGF in supernatant (murine splenocytes [2]): 0.8
EILLQK (UniProt P02754 71-76, looked up, fragment) [β-Lg f55-60]	1.96	1.05	1.92	1.09	1.98	1.16	1.93	1.54**	2.34**	1.54**	–
IDALNENK [β-Lg f84-91]	2.20	0.99	2.27	1.08	2.24	1.20*	2.18	1.22*	2.16	1.27**	–
RELKDLK [α-La f10-16]	1.85	1.06	1.95	1.19	1.95	1.47**	2.08	1.81**	2.26**	1.97**	–
VAGTWY (UniProt P02754 31-36, looked up, fragment) [β-Lg f15-20]	1.65	1.01	1.71	1.12*	1.67	1.46**	1.78	1.65**	1.77	1.42**	–
VLVLDTDYKKYLLF (listed as Homo sapiens) [β-Lg f92-105]	1.92	1.00	1.92	1.07	2.27**	1.15**	2.37**	1.31**	2.69**	1.55**	–
